Measurements published in patent US20130231393A1, “USE OF SQUARAMIDE IN THE PREVENTION AND/OR TREATMENT OF ROSACEA” (GALDERMA RESEARCH & DEVELOPMENT, priority 2010, published 2013).

Columns and labels:
[1] = target: T1, CXCR1 (Homo sapiens, UniProt P25024); assay: β-arrestin2 recruitment assay, antagonism of CXCL8 stimulation (U2OS hCXCR1 b-arrestin); type: cell-based; details: U2OS hCXCR1 b-arrestin cells, CXCL8-stimulated
T1 construct: β-galactosidase enzyme-complementation fragment (PathHunter system); host or cells: U2OS (U2OS hCXCR1 b-arrestin)
T1 sequence (P25024 1-350): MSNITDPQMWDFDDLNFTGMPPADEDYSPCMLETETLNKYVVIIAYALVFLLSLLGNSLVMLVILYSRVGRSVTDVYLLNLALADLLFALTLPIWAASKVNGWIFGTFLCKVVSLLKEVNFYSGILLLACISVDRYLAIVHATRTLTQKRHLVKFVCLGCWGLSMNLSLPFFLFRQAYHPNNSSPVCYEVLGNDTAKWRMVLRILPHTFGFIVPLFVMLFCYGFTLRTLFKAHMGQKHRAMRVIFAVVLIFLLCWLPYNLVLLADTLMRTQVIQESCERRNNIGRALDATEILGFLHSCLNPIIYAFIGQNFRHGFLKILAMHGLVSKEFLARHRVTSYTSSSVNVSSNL
Experimental: (§1) Antagonism of CXCL8-Stimulated β-Arrestin2 Recruitment. […] To monitor direct interaction of CXCR2 or CXCR1 with β-arrestin2, we used a β-arrestin2 recruitment assay for CXCR2 or CXCR1 based on enzyme complementation of β-galactosidase (Olson and Eglen, 2007), as established by DiscoveRx Corporation. […] All CXCR2-antagonists are tested in dose-depedant manner (firsty dose 10 μM).
(§2) PathHunter HEK293-hCXCR2 b-arrestin cells or U2OS hCXCR1 b-arrestin cells (both from DiscoveRx Corporation) were plated out overnight at 10,000 cells/well (384-well format) in 50 μl of Opti MEM I+1% bovine serum albumin. Cells were treated with CXR2 antogonist or vehicule (Opti MEM I) and CXCL-8 at the same time for 90 min.; thereafter, 25 μl of PathHunter Detection Reagents (DiscoveRx Corporation) was added. After an incubation of 60 min at room temperature, β-galactosidase-induced luminescence upon β-arrestin-CXCR1/2 interaction was measured in an TopCount Reader (Perkin Elmer). Functional data were evaluated by a nonlinear curve fitting procedure using XLFit4 (IDBS).

[2] = target: T2, CXCR2 (Homo sapiens, UniProt P25025); assay: β-arrestin2 recruitment assay, antagonism of CXCL8 stimulation (PathHunter HEK293 hCXCR2 b-arrestin); type: cell-based; details: PathHunter HEK293 hCXCR2 b-arrestin cells, CXCL8-stimulated
T2 sequence (P25025 1-360): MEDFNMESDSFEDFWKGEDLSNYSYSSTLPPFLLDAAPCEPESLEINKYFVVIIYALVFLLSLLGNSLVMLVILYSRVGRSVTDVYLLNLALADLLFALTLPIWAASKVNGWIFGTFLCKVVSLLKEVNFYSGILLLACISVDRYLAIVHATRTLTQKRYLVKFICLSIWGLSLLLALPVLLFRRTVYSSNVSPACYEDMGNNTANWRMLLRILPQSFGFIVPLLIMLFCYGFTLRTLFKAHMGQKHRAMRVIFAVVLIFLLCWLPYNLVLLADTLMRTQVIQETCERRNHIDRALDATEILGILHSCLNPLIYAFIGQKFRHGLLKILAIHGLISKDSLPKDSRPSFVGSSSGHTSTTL
Experimental: as §1, §2

[3] = tested on: hairless SKH1 mice; assay: RTX-induced vasodilation in a neurogenic skin inflammation model (laser Doppler perfusion imaging); type: in vivo; details: capsazepine at 5%, topical; RTX 0.03% on the back of SKH1 mice
Experimental: The animal model of neurogenic skin inflammation was induced by a unique topical application of resiniferatoxin (RTX), 0.03% on the back of hairless SKH1 mice. RTX is an ultrapotent capsaicin analog and RTX exposure evokes neuropeptides release. Most of these neuropeptides have vasodilatory properties and one component of RTX-induced neurogenic inflammation is the dermal vasodilation. In the present RTX-model, the objective assessment of the skin vasodilation was evaluated by laser Doppler perfusion imaging.
Material and Method: • Measurement of RTX-Induced Vasodilation
Adult female hairless SKH1 mice aged 7-9 weeks are obtained from Charles River (France). Anaesthesia with ketamine/xylazine is performed 10 minutes before treatment and body temperature is maintained at 35° C.-37° C. using an automated heating pad. A skin area of 1.8×1.5 cm on the back of the mouse is divided in two regions of interest. One region is treated with the vehicle, the other one with RTX 0.03%. […] The skin blood perfusion is evaluated every 2 minutes on the back of the mouse with a Laser Doppler perfusion imaging PIM3 (Perimed, France). […] Images are analysed and the yield of two parameters, the erythematous surface and the blood perfusion intensity ratio, is calculated as a relative area of vasodilation (mm^2). […] Results are expressed as mean±SEM. […]

CC[C@@H](Nc1c(Nc2cccc(C(=O)N(C)C)c2O)c(=O)c1=O)c1ccccc1 [3-[3,4-Dioxo-2-((R)-1-phenyl-propylamino)-cyclobut-1-enylamino]-2-hydroxy-N,N-dimethyl-benzamide]
IC50 [1]: 148 nM | IC50 [2]: 7 nM

Oc1cc2c(cc1O)CN(C(=S)NCCc1ccc(Cl)cc1)CCC2 [capsazepine]
relative area of vasodilation, AUC decreased by [3]: 13%
